“And” between values parts separate entries of the source, which are not always exact repeats. Identical values can stand only once.
Columns and labels:
Format in all cases: cell-based, human
[1] = system: PC-9 cells; assay: Annexin V/PI flow cytometry for cell apoptosis, PC-9; design: key to Apoptosis (sum of Q2 and Q3) / Apoptosis, Average: % apoptotic cells (Annexin V/PI flow cytometry); conditions: for Apoptosis, Average / Lymphocytes/Q2: FITC-A+ , PI-A+ Freq. of Parent / Lymphocytes/Q3: FITC-A+ , PI-A- Freq. of Parent / Apoptosis (sum of Q2 and Q3): PC-9, 48h; for Apoptosis, Average: average of three repeats; for Lymphocytes/Q2: FITC-A+ , PI-A+ Freq. of Parent / Lymphocytes/Q3: FITC-A+ , PI-A- Freq. of Parent: single runs; for Apoptosis (sum of Q2 and Q3): single repeats (Repeat 1-3)
Description: (§1) To establish whether the antiproliferative efficacy is associated with apoptosis, PC-9 and H460 cells were treated with compound e4 or e12 of various concentrations (4, 8 and 12 μM) for 48 h, and then assessed with flow cytometry.
(§2) Cell-apoptosis analysis was carried out by flow cytometry using the Annexin V/PI apoptosis kit according to the manufacturer’s manual. Briefly, PC-9 or H460 (3 × 10^4–5 × 10^4/well) cells were seeded in 12-well plates for 24 h, and then treated with 0.1% DMSO (as control) or various concentrations of compound e4 or e12 for 48 h, respectively. Cells were harvested, washed with PBS, and then incubated with 100ul of 1X Annexin V binding buffer containing 1 μl PI and 1 μl FITC Annexin V for 15 min at RT in the dark. 200 µl of 1X binding buffer were added to each tube for flow cytometry analysis (BD LSRFortessa™ Flow Cytometer). The percentages of apoptotic cells were analyzed using FlowJo soft.

[2] = system: H460 cells; assay: Annexin V/PI flow cytometry for cell apoptosis, H460; conditions: for Percentage of apoptosis, Average: average of three runs; for Q2+Q3 / Lymphocytes/Q2: FITC-A+ , PI-A+ Freq. of Parent / Lymphocytes/Q3: FITC-A+ , PI-A- Freq. of Parent / Percentage of apoptosis: single runs; for Q2+Q3: given as fraction; for Lymphocytes/Q2: FITC-A+ , PI-A+ Freq. of Parent / Lymphocytes/Q3: FITC-A+ , PI-A- Freq. of Parent / Percentage of apoptosis: time as in file name (24h, 48h or not given)
Description: as §1, §2

[3] = system: CCND1, CCNA2, CCNB1, CDK2, CDK6 RNA in PC-9 cells; assay: qPCR assay for cell cycle-related gene analysis; conditions: for CCNB relative mRNA expression (2^-ddCt vs NC, normalised to beta-Actin) / CCND1 relative mRNA expression (2^-ddCt vs NC, normalised to beta-Actin) / CDK6 relative mRNA expression (2^-ddCt vs NC, normalised to beta-Actin): qPCR SYBR_GREEN, NC = 1; for RQ: endogenous control b-Actin, reference sample NC
Description: To better understand the mechanisms underlying cell cycle arrest induced by e4 and e12 in NSCLC cells, we assessed the expression levels of a few genes involved in cell cycle regulation, including cyclin D1 (CCND1), cyclin A2 (CCNA2), cyclin B1 (CCNB1), cyclin-dependent kinase 2 (CDK2), and cyclin-dependent kinase 6 (CDK6) in PC-9 by qPCR. […] CCNA2 is known to bind and activate CDK2 and thus promotes the transition through G1/S and G2/M. CCNB1 and CCND1 are essential to mitosis and G1/S transition respectively. While G2/M arrest weas not detected, the changes in these gene expression profiles interpret the G1/S arrests in PC-9 cells treated with e4 and e12. PC-9 cells exposed to the compounds for various periods should be examined further.
Total RNA of cells was extracted and cDNA was synthesized. The primers for the target products were designed as in Table 3.

[4] = 4uM, Repeat 1-3, relative to NC = 1
[5] = 8uM, Repeat 1-3, relative to NC = 1
[6] = 12uM, Repeat 1-3, relative to NC = 1

COCCOc1cc2ncnc(Nc3cccc(-c4cn(Cc5cc(Br)cc(Br)c5)nn4)c3)c2cc1OCCOC [e4, [6,7-Bis-(2-methoxy-ethoxy)-quinazolin-4-yl]-{3-[1-(3,5-dibromo-benzyl)-1H-[1,2,3]triazol-4-yl]-phenyl}-amine]
cell apoptosis (flow cytometry) ([1]; PC-9, 4, 8 and 12 μM, 48 h): significant cell apoptosis
Apoptosis, Average ([1]; 4uM): 10.24
Lymphocytes/Q2: FITC-A+ , PI-A+ Freq. of Parent ([1]; 4uM): 4.32% and 13.0% and 11.9%
Lymphocytes/Q3: FITC-A+ , PI-A- Freq. of Parent ([1]; 4uM): 0.25% and 0.69% and 0.56%
Apoptosis, Average ([1]; 8uM): 14.45
Apoptosis (sum of Q2 and Q3) ([1]; 8uM): 10.39 and 18.02 and 14.93
Lymphocytes/Q2: FITC-A+ , PI-A+ Freq. of Parent ([1]; 8uM): 9.22% and 16.0% and 13.2%
Lymphocytes/Q3: FITC-A+ , PI-A- Freq. of Parent ([1]; 8uM): 1.17% and 2.02% and 1.73%
Apoptosis, Average ([1]; 12uM): 35.74
Apoptosis (sum of Q2 and Q3) ([1]; 12uM): 33.11 and 39.69 and 34.42
Lymphocytes/Q2: FITC-A+ , PI-A+ Freq. of Parent ([1]; 12uM): 28.20% and 34.7% and 29.1%
Lymphocytes/Q3: FITC-A+ , PI-A- Freq. of Parent ([1]; 12uM): 4.91% and 4.99% and 5.32%
Percentage of apoptosis, Average ([2]; H460, 4uM): 9.783%
Q2+Q3 ([2]; H460, 4uM): 0.1032 and 0.0852 and 0.1051
Lymphocytes/Q2: FITC-A+ , PI-A+ Freq. of Parent ([2]; H460, 4uM): 5.85% and 4.70% and 6.80%
Lymphocytes/Q3: FITC-A+ , PI-A- Freq. of Parent ([2]; H460, 4uM): 4.47% and 3.82% and 3.71%
Percentage of apoptosis ([2]; H460, 4uM): 10.32% and 8.52% and 10.51%
Percentage of apoptosis, Average ([2]; H460, 8uM): 47.9767%
Q2+Q3 ([2]; H460, 8uM): 0.4733 and 0.459 and 0.507
Lymphocytes/Q2: FITC-A+ , PI-A+ Freq. of Parent ([2]; H460, 8uM): 41.3% and 35.4% and 44.0%
Lymphocytes/Q3: FITC-A+ , PI-A- Freq. of Parent ([2]; H460, 8uM): 6.03% and 10.5% and 6.70%
Percentage of apoptosis ([2]; H460, 8uM): 47.33% and 45.9% and 50.7%
Percentage of apoptosis, Average ([2]; H460, 12uM): 72.3733%
Q2+Q3 ([2]; H460, 12uM): 0.7923 and 0.7087 and 0.6702
Lymphocytes/Q2: FITC-A+ , PI-A+ Freq. of Parent ([2]; H460, 12uM): 74.3% and 67.3% and 60.8%
Lymphocytes/Q3: FITC-A+ , PI-A- Freq. of Parent ([2]; H460, 12uM): 4.93% and 3.57% and 6.22%
Percentage of apoptosis ([2]; H460, 12uM): 79.23% and 70.87% and 67.02%
cell apoptosis (flow cytometry) ([2]; H460, 4, 8 and 12 μM, 48 h): significant cell apoptosis
CCNB relative mRNA expression (2^-ddCt vs NC, normalised to beta-Actin) ([3]; 4uM): 0.8081
CCNB relative mRNA expression (2^-ddCt vs NC, normalised to beta-Actin) ([3]; 8uM): 0.7848
CCND1 relative mRNA expression (2^-ddCt vs NC, normalised to beta-Actin) ([3]; 8uM): 0.7172
CDK6 relative mRNA expression (2^-ddCt vs NC, normalised to beta-Actin) ([3]; 8uM): 0.824
CCNB relative mRNA expression (2^-ddCt vs NC, normalised to beta-Actin) ([3]; 12uM): 0.736
CCND1 relative mRNA expression (2^-ddCt vs NC, normalised to beta-Actin) ([3]; 12uM): 0.6074
CDK6 relative mRNA expression (2^-ddCt vs NC, normalised to beta-Actin) ([3]; 12uM): 1.051
RQ ([3]; CCNA mRNA, 4uM): 0.764
RQ ([3]; CCNA mRNA, 8uM): 0.7042
RQ ([3]; CCNA mRNA, 12uM): 0.7817
2^ΔΔCт CCNA [3, 4]: 0.7613 and 0.8165 and 0.764
2^ΔΔCт CCNA [3, 5]: 0.7109 and 0.778 and 0.7042
2^ΔΔCт CCNA [3, 6]: 0.5857 and 0.5446 and 0.7817
RQ ([3]; CCNB mRNA, 4uM): 0.9138
RQ ([3]; CCNB mRNA, 8uM): 0.7783
RQ ([3]; CCNB mRNA, 12uM): 1.003
2^ΔΔCт CCNB [3, 4]: 0.8081 and 0.8617 and 0.9138
2^ΔΔCт CCNB [3, 5]: 0.7848 and 0.9105 and 0.7783
2^ΔΔCт CCNB [3, 6]: 0.736 and 0.7897 and 1.003
2^ΔΔCт CCND1 ([3]; CCND1, 4uM, Repeat 1-3, relative to NC = 1): 0.8337 and 1.076 and 0.8297
2^ΔΔCт CCND1 ([3]; CCND1, 8uM, Repeat 1-3, relative to NC = 1): 0.7172 and 1.068 and 0.8923
2^ΔΔCт CCND1 ([3]; CCND1, 12uM, Repeat 1-3, relative to NC = 1): 0.6074 and 0.7441 and 0.7112
2^ΔΔCт ([3]; CCND1, 12uM, normalized to WT (NC), run 20201020-2): 0.7112
RQ ([3]; CCND1 mRNA, 4uM): 0.8297
RQ ([3]; CCND1 mRNA, 8uM): 0.8923
RQ ([3]; CCND1 mRNA, 12uM): 0.7112
2^ΔΔCт CDK2 ([3]; CDK2, 4uM, Repeat 1-3, relative to NC = 1): 1.17 and 1.2056 and 1.028
